Each structure is given as a SMILES string. Where two headings read alike, the source gives them in different places.

Data on four compounds can be found in patent US7314937B2, “Non-imidazole aryl alkylamines compounds as histamine H3 receptor antagonists, preparation and therapeutic uses” (Eli Lilly and Company, priority 2002, dated 2008).

For data set [1], the target named is T1, H3R membranes (H3R8-expressing HEK293 cell line) (Homo sapiens, UniProt Q9Y5N1).
T1 construct: expressed in transfected cells; membranes
T1 sequence (Q9Y5N1 whole entry): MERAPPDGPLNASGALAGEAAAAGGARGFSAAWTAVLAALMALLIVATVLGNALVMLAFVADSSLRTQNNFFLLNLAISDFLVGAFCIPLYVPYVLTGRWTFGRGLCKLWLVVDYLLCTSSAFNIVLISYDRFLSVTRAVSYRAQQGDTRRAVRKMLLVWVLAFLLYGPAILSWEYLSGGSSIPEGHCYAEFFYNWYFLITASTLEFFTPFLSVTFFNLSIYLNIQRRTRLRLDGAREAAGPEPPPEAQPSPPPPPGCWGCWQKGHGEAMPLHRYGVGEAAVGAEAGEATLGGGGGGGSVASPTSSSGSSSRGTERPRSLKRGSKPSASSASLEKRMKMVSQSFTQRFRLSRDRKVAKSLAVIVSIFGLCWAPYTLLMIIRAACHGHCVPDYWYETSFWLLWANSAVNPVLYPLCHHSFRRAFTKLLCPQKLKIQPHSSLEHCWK
Nature of the data set: [35S]GTPγS binding assay (antagonist inhibition of agonist-stimulated binding). The class given is biochemical. The conditions noted are these: inhibition of [35S]GTPγS binding to H3R membranes in presence of agonist R(-) alpha methylhistamine. As for the experimental part:
Membranes isolated as described in Example 3 were used in a [^35S]GTPχS functional assay. Binding of [^35S]GTPχS to membranes indicates agonist activity. Compounds of the invention of Formula I were tested for their ability to inhibit binding in the presence of agonists. Alternately, the same transfected cell lines were used for a cAMP assay wherein H3R agonists inhibited forskolin-activated synthesis of cAMP. Compounds of Formula I were tested for their ability to permit forskolin-stimulated cAMP synthesis in the presence of agonist.
cDNA for the human histamine 3 receptor was cloned and expressed as described in Example 1, above. Transfected cells were selected using G418 (500 μ/ml), grown, and tested for histamine binding by the SPA described above. For total binding, cells were assayed in a SPA reaction described above containing 50 mM Tris-HCL (assay buffer), pH 7.6, 1 mg wheat germ agglutinin SPA beads (Amersham Pharmacia Biotech, #RPNQ0001), and 1 nM (^3H)-n-alpha-methylhistamine (NEN, NET1027) (total volume per well=200 μl). Thioperimide was added to determine non-specific binding. […]
Antagonist activity of selected compounds was tested for inhibition of [^35S] […] Plates were counted in Wallac Trilux 1450 Microbeta scintillation counter for 1 minute. […]

Data set [2] concerns the target T2, human histamine 1 receptor (H1R) (Homo sapiens, UniProt P35367).
T2 construct: expressed in transfected cells; membranes
The data set can be described thus: Competitive SPA binding assay, H1R, 3H-pyrilamine. The conditions noted are these: selectivity study Table 2. As for the experimental part: A. Preparation H1R Membranes
cDNA for the human histamine 1 receptor (H1R) was cloned into a mammalian expression vector containing the CMV promoter (pcDNA3.1 (+), Invitogen) and transfected into HEK293 cells using the FuGENE Tranfection Reagent (Roche Diagnostics Corporation). Transfected cells were selected using G418 (500 μ/ml). Colonies that survived selection were grown and tested for histamine binding to cells grown in 96-well dishes using a scintillation proximity assay (SPA) based radioligand binding assay. Briefly, cells, representing individual selected clones, were grown as confluent monolayers in 96-well dishes (Costar Clear Bottom Plates, #3632) by seeding wells with 25,000 cells and growing for 48 hours (37° C., 5% CO2). Growth media was removed and wells were rinsed two times with PBS (minus Ca^2+ or Mg^2+). For total binding, cells were assayed in a SPA reaction containing 50 mM Tris-HCL (assay buffer), pH 7.6, 1 mg wheat germ agglutinin SPA beads (Amersham Pharmacia Biotech, #RPNQ0001), and 0.8 nM ^3H-pyrilamine (Net-594, NEN) (total volume per well=200 μl). Astemizole (10 μM, Sigma #A6424) was added to appropriate wells to determine non-specific binding. Plates were covered with FasCal and incubated at room temperature for 120 minutes. […] Plates were counted in a Wallac Trilux 1450 Microbeta scintillation counter. […]

Data set [3] concerns the target T3, human histamine 2 receptor (Homo sapiens, UniProt P25021).
T3 construct: expressed in transfected cells; membranes
Nature of the data set: Competitive SPA binding assay, H2R, 3H-tiotidine. Particulars: selectivity study Table 2, read-out: Ki (nM) H2. As for the experimental part: B. Preparation H2R Membranes
cDNA for the human histamine 2 receptor was cloned, expressed and transfected into HEK 293 cells as described above. Histamine binding to cells was assayed by SPA described above. For total binding, cells were assayed in a SPA reaction containing 50 mM Tris-HCl (assay buffer), pH 7.6, 1 mg wheat germ agglutinin SPA beads (Amersham Pharmacia Biotech, #RPNQ0001), and 6.2 nM ^3H-tiotidine (Net-688, NEN) (total volume per well=200 μl). Cimetidine (10 μM, Sigma #C4522) was added to appropriate wells to determine non-specific binding.
Several clones were selected as positive for binding, and a single clone (H2R10) was used to prepare membranes for binding studies. Five micrograms of protein was used per well in the SPA receptor-binding assay.
(§1) To investigate the selectivity of the antagonists for the histamine receptors, a competitive binding assay described above was performed. […] Until the present invention, most known H3R antagonists also bound H4R.

Data set [4] can be described thus: Rat pharmacokinetics, iv and po, LC/MS/MS. Particulars: 10 mg/kg po; for oral bioavailability (AUC 0-24 hr; po/iv ratio): 3 mg/kg iv; for half-life: male, Sprague Dawley, read-out: oral half-life (±SEM) (converted). It is filed as in vivo, Male Sprague Dawley Rats. How it is done: Non-imidazole containing histamine H3 receptor antagonists disclosed in the literature generally have very poor pharmacokinetic properties (see J. Apelt, et al, J. Med. Chem. 2002,45,1128-1141). […] Male Sprague Dawley Rats (n=3 per dose arm) were separately dosed with 3 mg/kg iv or 10 mg/kg po of compound examples 131 and 271 (vehicle: 5% ethanol/water or water respectively; dose volume: 1 mL/kg iv, 10 mL/kg po). Approximately 0.5 mL of blood was collected in heparin collection tubes at multiple time points over an 8 or 24-hour period for examples 131 and 271 respectively, and the samples were analyzed using LC/MS/MS.

The target of data set [5] is T4, human GPRv53 receptor (H4R) (Homo sapiens, UniProt Q9H3N8).
T4 construct: expressed in transfected cells; host or cells: HEK293 GPRv53 50 cells; homogenised whole-cell lysates
T4 sequence (Q9H3N8 whole entry): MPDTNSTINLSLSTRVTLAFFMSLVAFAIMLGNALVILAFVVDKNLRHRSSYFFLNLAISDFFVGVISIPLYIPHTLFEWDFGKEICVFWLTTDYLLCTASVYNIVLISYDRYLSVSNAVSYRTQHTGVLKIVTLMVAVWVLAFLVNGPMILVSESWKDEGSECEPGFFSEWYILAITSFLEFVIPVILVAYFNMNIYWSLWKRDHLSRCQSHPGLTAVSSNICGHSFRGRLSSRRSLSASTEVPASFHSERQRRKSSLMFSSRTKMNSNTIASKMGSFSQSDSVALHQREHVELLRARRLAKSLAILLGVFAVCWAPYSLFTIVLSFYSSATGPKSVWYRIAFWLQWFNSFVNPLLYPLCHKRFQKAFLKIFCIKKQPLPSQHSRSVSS
The data set can be described thus: Competitive binding assay, GPRv53 (H4R), [3H]histamine. Particulars: for inhibition of binding to H4R compared to H3R: in words; for Ki: selectivity study Table 2. As for the experimental part:
D. Preparation of GPRv53 Membranes
cDNA for the human GPRv53 receptor was cloned and expressed as described in Example 1, above. Transfected cells were selected, tested for histamine binding, and selected. HEK293 GPRv53 50 cells were grown to confluency in DMEM/F12 (Gibco) supplemented with 5% FBS and 500 ug/ml G418 and washed with Delbecco's PBS (Gibco) and harvested by scraping. Whole cells were homogenized with a Polytron tissuemizer in binding buffer, 50 mM Tris pH 7.5. Cell lysates, 50 ug, were incubated in 96 well dishes with 3 nM (3H) Histamine and compounds in binding buffer for 2 hours at room temperature. Lysates were filtered through glass fiber filters (Perkin Elmer) with a Tomtec cell harverster. Filters were counted with melt-on scintillator sheets (Perkin Elmer) in a Wallac Trilux 1450 Microbeta Scintillation counter for 5 minutes.
as §1

Data set [6] concerns the target T5, human histamine 3 receptor (H3R) (Homo sapiens, UniProt Q9Y5N1).
T5 construct: expressed in transfected cells; membranes
The data set can be described thus: Competitive inhibition SPA radioligand binding assay, H3R. The source says: The inventive compounds can readily be evaluated by using a competitive inhibition Scintillation Proximity Assay (SPA) based on a H3R binding assay using [3H] a methylhistamine as ligand. Stable cell lines, including but not limited to HEK can be transfected with cDNA coding for H3R to prepare membranes used for the binding assay. The technique is illustrated below (Example 3) for the histamine receptor subtypes.
C. Preparation of H3R Membranes
cDNA for the human histamine 3 receptor was cloned and expressed as described in Example 1, above. Transfected cells were selected using G418 ([…]), grown, and tested for histamine binding by the SPA described above. For total binding, cells were assayed in a SPA reaction described above containing 50 mM Tris-HCL (assay buffer), pH 7.6, 1 mg wheat germ agglutinin SPA beads (Amersham Pharmacia Biotech, #RPNQ0001), and 1 nM (^3H)-n-alpha-methylhistamine (NEN, NET1027) (total volume per well=200 μl). Thioperimide was added to determine non-specific binding. Several clones were selected as positive for binding, and a single clone (H3R8) was used to prepare membranes for binding studies described above. Five micrograms of protein was used per well in the SPA receptor-binding assay.
To investigate the selectivity of the antagonists for the histamine receptors, a competitive binding assay described above was performed. […]

T2 sequence (P35367 whole entry): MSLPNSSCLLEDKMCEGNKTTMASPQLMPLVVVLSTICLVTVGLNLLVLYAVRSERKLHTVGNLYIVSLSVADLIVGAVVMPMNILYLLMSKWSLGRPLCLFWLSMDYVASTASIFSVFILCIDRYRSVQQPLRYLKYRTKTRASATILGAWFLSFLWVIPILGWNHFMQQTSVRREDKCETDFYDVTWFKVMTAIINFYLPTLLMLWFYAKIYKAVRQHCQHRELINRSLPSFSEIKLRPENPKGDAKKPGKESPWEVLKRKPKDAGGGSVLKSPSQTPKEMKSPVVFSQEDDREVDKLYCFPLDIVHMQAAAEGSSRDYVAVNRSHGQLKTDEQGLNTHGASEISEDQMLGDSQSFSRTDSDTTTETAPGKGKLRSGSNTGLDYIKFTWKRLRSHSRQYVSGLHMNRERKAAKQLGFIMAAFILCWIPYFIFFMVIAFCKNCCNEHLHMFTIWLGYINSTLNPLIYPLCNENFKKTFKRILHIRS
T5 sequence (Q9Y5N1 whole entry): as the sequence (Q9Y5N1 whole entry) above
T3 sequence (P25021 whole entry): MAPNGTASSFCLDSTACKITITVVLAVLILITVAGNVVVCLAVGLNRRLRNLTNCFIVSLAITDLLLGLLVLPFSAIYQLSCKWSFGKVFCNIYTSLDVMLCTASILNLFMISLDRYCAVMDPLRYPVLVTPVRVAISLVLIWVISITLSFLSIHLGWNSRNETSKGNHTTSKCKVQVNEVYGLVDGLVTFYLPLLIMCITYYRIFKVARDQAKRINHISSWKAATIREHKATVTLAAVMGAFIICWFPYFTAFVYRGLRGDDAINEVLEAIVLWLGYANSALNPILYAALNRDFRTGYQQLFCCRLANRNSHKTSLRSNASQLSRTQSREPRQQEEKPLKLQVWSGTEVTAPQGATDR

For `CCN(CC)CCCOc1ccc(C(C)N(C)CCN(C)C)cc1` (stereo not drawn) [Example 1], the Ki in data set [1] amounted to 1.4 nM.
As for `O=C(c1ccc(OCCN2CCCCC2)cc1)N1CCC[C@H]1CN1CCCC1` [Example 131], the Ki is at least 20000 nM in data set [2]; at least 20000 nM in data set [3]; at least 20000 nM in data set [5]; 1.05 nM in data set [6] (competitive binding, selectivity study Table 2, read-out: Ki (nM) H3R). Moreover, in data set [4], the “oral bioavailability (AUC 0-24 hr; po/iv ratio)” value is reported as 58%. For the same compound, the half-life in data set [4] (blood) was 10.4 ± 4.2 h. For the same compound, the “inhibition of binding to H4R compared to H3R” value in data set [5] was “did not inhibit binding H4R”.
In the case of `CCN1CCc2cc(OCCCN3CCCCC3)ccc2C1.Cl.Cl` [Example 250, 2-Ethyl-6-(3-piperidin-1-yl-propoxy)-1,2,3,4-tetrahydro-isoquinoline dihydrochloride], the Ki in data set [2] is 1020 nM; in data set [3] it was 1110 nM; in data set [5], at least 20000 nM; in data set [6] it was 0.37 nM. Further, the “inhibition of binding to H4R compared to H3R” value in data set [5] is recorded as “did not inhibit binding H4R”.
As to `CCN1CCc2ccc(OCCCN3CCCCC3)cc2C1.Cl.Cl` [Example 271, 2-Ethyl-7-(3-Piperidin-1-yl-propoxy)-1,2,3,4-tetrahydro-isoquinoline dihydrochloride], in data set [4], the “oral bioavailability (AUC 0-24 hr; po/iv ratio)” value is 69%. The half-life in data set [4] (in vivo) is 71.9 ± 3.3 h.
